Inhibition data for three compounds are collected here from ChEMBL document CHEMBL5154740, “Novel Aurora A and Protein Kinase C (α, β1, β2, and θ) Multitarget Inhibitors: Impact of Selenium Atoms on the Potency and Selectivity” (J Med Chem, 2022).

In experiment [1] the target is Serine/threonine-protein kinase B-raf (Homo sapiens) (UniProt P15056). The experiment in a line: Inhibition of BRaf (unknown origin) at 50 nM by Z'LYTE screening method relative to control.
The target in experiment [2] is T1, Serine/threonine-protein kinase Chk1 (Homo sapiens) (UniProt O14757).
T1 sequence (whole entry): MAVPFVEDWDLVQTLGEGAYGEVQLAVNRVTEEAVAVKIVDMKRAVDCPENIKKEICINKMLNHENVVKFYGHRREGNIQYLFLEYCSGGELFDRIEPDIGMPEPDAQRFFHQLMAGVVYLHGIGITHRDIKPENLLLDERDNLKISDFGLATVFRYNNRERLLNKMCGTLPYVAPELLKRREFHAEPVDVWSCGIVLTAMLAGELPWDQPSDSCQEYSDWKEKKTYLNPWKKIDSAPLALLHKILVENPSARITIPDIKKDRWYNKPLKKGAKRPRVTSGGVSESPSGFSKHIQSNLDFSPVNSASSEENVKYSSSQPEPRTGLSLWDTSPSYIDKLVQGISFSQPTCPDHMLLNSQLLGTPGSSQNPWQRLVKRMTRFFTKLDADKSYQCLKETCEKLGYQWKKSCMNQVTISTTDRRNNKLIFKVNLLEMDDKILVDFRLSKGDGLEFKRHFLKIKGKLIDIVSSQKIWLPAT
The experiment in a line: Inhibition of CHK1 (unknown origin) at 50 nM by Z'LYTE screening method relative to control.

The target in experiment [3] is T2, Inhibitor of nuclear factor kappa-B kinase subunit beta (Homo sapiens) (UniProt O14920).
T2 sequence (whole entry): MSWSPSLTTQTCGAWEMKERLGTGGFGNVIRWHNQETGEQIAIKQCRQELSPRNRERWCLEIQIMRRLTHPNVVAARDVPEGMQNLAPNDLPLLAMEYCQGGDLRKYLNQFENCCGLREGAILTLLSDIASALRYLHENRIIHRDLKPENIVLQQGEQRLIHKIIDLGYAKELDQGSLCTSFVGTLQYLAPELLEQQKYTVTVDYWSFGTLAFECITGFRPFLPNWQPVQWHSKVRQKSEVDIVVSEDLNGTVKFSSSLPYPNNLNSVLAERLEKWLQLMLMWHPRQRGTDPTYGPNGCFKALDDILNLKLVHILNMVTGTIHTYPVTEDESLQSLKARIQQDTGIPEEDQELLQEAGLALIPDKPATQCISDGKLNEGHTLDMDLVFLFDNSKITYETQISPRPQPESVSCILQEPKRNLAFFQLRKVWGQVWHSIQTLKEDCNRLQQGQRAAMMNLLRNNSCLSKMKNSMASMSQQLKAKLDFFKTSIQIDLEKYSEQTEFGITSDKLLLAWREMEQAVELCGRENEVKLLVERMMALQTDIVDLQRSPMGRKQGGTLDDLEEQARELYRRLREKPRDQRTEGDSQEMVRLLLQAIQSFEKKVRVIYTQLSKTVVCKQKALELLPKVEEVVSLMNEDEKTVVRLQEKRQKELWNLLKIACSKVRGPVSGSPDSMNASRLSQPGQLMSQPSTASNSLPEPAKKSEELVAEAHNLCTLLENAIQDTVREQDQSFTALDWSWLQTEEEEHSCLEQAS
As to the kind of experiment: Inhibition of IKKbeta (unknown origin) at 50 nM by Z'LYTE screening method relative to control.

In experiment [4] the target is Platelet-derived growth factor receptor alpha (Homo sapiens) (UniProt P16234). As to the kind of experiment: Inhibition of PDGFRalpha (unknown origin) at 50 nM by Z'LYTE screening method relative to control.
Platelet-derived growth factor receptor alpha (Homo sapiens), sequence (P16234 whole entry): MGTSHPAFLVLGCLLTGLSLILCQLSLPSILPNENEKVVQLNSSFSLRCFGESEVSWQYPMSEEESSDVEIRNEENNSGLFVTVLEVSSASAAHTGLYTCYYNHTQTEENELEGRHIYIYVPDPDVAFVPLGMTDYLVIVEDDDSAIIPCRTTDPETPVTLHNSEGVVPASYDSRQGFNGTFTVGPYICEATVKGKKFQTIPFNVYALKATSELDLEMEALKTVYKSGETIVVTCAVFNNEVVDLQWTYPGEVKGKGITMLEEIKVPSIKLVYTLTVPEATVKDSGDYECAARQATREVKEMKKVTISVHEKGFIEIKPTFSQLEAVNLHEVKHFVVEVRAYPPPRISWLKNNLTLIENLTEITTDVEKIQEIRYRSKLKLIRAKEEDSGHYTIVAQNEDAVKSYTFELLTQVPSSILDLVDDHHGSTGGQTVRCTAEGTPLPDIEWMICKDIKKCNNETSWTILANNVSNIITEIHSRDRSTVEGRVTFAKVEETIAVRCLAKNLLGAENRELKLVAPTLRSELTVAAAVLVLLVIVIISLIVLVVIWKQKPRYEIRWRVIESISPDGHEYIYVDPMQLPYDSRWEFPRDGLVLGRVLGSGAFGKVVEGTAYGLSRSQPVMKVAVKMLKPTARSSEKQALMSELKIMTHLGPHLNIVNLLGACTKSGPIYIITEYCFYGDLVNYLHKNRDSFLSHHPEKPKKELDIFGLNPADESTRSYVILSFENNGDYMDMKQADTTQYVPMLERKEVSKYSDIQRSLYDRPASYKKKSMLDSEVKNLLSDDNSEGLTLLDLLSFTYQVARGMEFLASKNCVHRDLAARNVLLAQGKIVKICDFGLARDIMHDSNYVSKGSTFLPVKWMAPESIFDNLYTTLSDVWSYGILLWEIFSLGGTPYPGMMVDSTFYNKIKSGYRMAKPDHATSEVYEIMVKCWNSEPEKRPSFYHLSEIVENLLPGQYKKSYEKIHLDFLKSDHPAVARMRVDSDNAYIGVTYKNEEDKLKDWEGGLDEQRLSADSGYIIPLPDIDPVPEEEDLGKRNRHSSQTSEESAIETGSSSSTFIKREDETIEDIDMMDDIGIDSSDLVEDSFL
The target in experiment [5] is cAMP-dependent protein kinase (PKA) (Homo sapiens) (UniProt P22694+P17612+P22612). As to the kind of experiment: Inhibition of PKA (unknown origin) at 50 nM by Z'LYTE screening method relative to control. The class given is protein assay.
Experiment [6] concerns the target T3, Serine/threonine-protein kinase TBK1 (Homo sapiens) (UniProt Q9UHD2).
T3 sequence (whole entry): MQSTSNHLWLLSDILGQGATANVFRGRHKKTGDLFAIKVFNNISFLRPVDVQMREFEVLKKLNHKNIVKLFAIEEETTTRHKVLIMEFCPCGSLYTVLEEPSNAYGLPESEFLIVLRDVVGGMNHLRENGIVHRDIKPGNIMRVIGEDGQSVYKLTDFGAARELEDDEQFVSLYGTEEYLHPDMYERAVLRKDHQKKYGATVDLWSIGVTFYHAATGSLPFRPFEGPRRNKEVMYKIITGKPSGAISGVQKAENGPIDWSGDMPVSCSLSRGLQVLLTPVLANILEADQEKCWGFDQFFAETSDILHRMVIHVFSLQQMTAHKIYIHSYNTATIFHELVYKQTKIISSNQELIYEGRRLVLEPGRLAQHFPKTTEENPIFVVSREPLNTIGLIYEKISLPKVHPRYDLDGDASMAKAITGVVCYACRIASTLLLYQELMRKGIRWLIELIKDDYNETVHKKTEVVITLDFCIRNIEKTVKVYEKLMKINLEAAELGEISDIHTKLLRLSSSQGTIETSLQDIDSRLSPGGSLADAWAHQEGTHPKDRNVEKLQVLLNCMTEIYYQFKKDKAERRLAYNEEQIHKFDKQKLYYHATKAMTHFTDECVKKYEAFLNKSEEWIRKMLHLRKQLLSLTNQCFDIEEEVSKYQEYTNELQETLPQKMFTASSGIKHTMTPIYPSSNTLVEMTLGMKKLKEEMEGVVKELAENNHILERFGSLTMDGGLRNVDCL
The experiment in a line: Inhibition of TBK1 (unknown origin) at 50 nM by Z'LYTE screening method relative to control.

For experiment [7], the target named is T4, TGF-beta receptor type-1 (Homo sapiens) (UniProt P36897).
T4 sequence (whole entry): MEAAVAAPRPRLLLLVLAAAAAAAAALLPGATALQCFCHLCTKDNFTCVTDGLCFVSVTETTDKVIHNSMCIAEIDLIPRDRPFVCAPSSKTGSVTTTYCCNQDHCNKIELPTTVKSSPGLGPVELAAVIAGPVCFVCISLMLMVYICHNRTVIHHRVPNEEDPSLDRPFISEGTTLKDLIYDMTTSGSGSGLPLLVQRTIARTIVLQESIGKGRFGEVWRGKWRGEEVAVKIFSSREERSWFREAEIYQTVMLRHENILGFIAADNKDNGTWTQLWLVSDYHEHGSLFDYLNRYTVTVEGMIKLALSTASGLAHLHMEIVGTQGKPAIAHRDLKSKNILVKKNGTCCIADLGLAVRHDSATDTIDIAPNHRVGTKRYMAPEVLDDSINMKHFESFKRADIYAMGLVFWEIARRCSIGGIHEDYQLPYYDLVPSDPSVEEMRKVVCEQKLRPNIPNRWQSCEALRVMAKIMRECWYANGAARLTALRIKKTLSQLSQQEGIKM
The experiment in a line: Inhibition of TGFBR1 (unknown origin) at 50 nM by Z'LYTE screening method relative to control.

Experiment [8] has as its target 3-phosphoinositide-dependent protein kinase 1 (Homo sapiens) (UniProt O15530). As to the kind of experiment: Inhibition of PDK1 (unknown origin) at 50 nM by Z'LYTE screening method relative to control.

3-phosphoinositide-dependent protein kinase 1 (Homo sapiens), sequence (O15530 whole entry, looked up): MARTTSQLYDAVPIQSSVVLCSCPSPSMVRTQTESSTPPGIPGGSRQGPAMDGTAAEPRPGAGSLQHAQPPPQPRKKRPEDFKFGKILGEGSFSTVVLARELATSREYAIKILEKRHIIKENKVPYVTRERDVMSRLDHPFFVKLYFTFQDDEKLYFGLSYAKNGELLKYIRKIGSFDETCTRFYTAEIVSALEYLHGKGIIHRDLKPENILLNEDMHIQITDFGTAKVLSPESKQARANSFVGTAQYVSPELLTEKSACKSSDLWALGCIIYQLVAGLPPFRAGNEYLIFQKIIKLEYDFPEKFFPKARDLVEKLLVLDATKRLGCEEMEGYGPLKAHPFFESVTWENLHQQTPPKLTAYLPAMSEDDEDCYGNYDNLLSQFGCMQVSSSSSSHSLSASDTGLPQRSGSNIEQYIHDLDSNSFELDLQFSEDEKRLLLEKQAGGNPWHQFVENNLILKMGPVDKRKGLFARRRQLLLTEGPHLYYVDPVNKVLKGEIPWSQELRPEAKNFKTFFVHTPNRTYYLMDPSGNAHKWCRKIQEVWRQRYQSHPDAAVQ
Serine/threonine-protein kinase B-raf (Homo sapiens), sequence (P15056 whole entry): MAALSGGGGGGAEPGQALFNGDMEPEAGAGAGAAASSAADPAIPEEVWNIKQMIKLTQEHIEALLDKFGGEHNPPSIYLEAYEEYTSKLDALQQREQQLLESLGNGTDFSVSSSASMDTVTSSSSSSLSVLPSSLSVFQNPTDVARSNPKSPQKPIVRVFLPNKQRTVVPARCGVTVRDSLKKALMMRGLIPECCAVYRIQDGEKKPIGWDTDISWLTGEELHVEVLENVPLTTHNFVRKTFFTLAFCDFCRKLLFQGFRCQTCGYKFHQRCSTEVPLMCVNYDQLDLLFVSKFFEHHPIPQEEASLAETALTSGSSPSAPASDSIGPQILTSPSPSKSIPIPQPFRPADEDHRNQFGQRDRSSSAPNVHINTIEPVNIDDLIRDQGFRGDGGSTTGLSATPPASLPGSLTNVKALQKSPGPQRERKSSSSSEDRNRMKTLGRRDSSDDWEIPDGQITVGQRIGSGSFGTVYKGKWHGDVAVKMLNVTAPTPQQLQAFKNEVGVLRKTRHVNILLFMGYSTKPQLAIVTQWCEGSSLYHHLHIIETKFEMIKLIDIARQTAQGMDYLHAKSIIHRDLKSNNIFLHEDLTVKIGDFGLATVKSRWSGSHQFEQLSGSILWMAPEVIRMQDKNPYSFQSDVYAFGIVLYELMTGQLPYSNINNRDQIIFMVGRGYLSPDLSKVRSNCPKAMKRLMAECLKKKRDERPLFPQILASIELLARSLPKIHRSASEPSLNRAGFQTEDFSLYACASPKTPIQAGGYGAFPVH

For `O=c1c2ccccc2[se]n1-c1nc(NC2CCCCC2)c2nc[nH]c2n1`, the inhibition in experiment [1] worked out at 10%; in experiment [2] it was 0%; in experiment [3], 6%; in experiment [4] it was 16%; in experiment [5], 22%; in experiment [6] it was 0%. The inhibition in experiment [7] turned out to be 11%; in experiment [8], 0%.
Take `O=c1c2ccccc2[se]n1-c1nc(N[C@H]2CC[Se]C2)c2nc[nH]c2n1`: the inhibition in experiment [1] came out at 0%; in experiment [2] it was 4%; in experiment [3], 9%; in experiment [4], 1%; in experiment [5] it was 53%; in experiment [6] it was 0%. Moreover, the inhibition in experiment [7] and in experiment [8] was 0% in each case.
For `O=C1c2ccccc2CN1c1nc(NC2CCCCC2)c2nc[nH]c2n1`, the inhibition in experiment [1] came out at 7%; in experiment [2] it was 0%; in experiment [3], 6%; in experiment [4] it was 11%; in experiment [5] it was 12%; in experiment [6] it was 0%. In addition, the inhibition in experiment [7] stood at 3%; in experiment [8], 0%.
